Experimental findings from US20260035364A1, “BICYCLIC TETRAHYDROTHIAZEPINE DERIVATIVES” (Hoffmann-La Roche Inc., priority 2022, published 2026) are described below.

The subject of assay [1] is primary human T-cells. Kind of assay: T-cell proliferation assay (CellTiter-Glo). It is filed as cell-based. To be noted: Homo sapiens, T-cell, 120 h, CD3 condition; for Emax: 5 days, 20 μM reference compound A1 = 100%, read-out: Emax proliferation (% activation); for EC50: proliferation after 5 days, CellTiter-Glo, read-out: Tcell Proliferation CD3 EC50. In outline:
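Expanded primary human T-cells (100k/well) on plates coated with CD3 antibody or PBS only, given a 5- or 6-point dose response (top 20 or 10 μM final, 3.333-fold steps, 0.2% DMSO). ATP measured by CellTiter-Glo 2.0 luminescence after 5 days. Normalized to DMSO and 20 μM reference A1 (100%); EC50 and Emax reported for CD3 conditions.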

The target in assay [2] is DGKzeta (Homo sapiens, UniProt Q13574). The assay can be described thus: In vitro DGK inhibition assay (ADP-Glo, liposomes), DGKzeta. It is filed as biochemical. Details: hDGKzeta(1-928)-N-His; His (N); made in house; host or cells: Sf21 insect cells (baculovirus). To be noted: 2 nM DGK ζ, 50 μM ATP, 125 uM DLG in liposomes, 1 hour reaction. The method, boiled down:
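DGKζ (2 nM) phosphorylated DLG presented in DLG/PS/PC liposomes (final DLG 125 μM) with 50 μM ATP for 1 hour. ADP formed was read by ADP-Glo luminescence. Compounds were tested as 11-point 1:3 dose responses in 2% final DMSO.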

DGKzeta, sequence (Q13574 whole entry): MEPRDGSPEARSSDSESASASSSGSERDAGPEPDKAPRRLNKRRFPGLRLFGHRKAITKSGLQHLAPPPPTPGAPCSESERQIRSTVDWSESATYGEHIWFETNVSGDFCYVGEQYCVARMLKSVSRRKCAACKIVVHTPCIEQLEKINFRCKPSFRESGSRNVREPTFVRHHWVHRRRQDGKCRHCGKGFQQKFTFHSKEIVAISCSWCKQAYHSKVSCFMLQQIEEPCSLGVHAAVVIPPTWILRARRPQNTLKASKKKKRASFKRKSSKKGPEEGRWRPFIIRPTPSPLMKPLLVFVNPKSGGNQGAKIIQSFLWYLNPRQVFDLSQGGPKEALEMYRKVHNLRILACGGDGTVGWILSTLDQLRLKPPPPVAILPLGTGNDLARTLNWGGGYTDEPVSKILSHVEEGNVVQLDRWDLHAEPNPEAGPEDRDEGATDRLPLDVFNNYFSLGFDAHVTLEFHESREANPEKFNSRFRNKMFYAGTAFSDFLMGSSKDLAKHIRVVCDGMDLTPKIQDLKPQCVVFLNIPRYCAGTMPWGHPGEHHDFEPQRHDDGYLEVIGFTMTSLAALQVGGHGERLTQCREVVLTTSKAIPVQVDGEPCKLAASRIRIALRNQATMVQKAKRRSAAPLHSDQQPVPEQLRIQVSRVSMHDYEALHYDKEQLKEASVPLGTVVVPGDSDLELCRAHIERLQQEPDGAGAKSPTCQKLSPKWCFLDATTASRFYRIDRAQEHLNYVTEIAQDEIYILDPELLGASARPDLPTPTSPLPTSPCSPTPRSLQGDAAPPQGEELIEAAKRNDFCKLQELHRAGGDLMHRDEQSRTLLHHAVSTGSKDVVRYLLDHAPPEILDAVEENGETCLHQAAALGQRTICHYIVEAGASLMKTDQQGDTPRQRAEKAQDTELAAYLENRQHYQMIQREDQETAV

For the compound `CC(C)(c1nnc(-c2ccc3c(c2)N(Cc2ccc(OC(F)(F)C(F)F)cc2)C(=O)[C@@H](N)CS3(=O)=O)o1)S(C)(=O)=O` [Example 3, (3R)-3-amino-7-[5-(1-methyl-1-methylsulfonyl-ethyl)-1,3,4-oxadiazol-2-yl]-1,1-dioxo-5-[[4-(1,1,2,2-tetrafluoroethoxy)phenyl]methyl]-2,3-dihydro-126,5-benzothiazepin-4-one], in assay [1], the Emax came to 66% and the EC50 came to 5.07 µM. For the same compound, the IC50 in assay [2] came out at 0.978 µM.
Taken in the same sequence, the figures for `CC(C)(c1nc(-c2cc3c(cc2F)S(=O)(=O)C[C@H](N)C(=O)N3Cc2ccc(Oc3ccccc3)cc2)no1)S(C)(=O)=O` [Example 30, (3R)-3-amino-8-fluoro-7-[5-(1-methyl-1-methylsulfonyl-ethyl)-1,2,4-oxadiazol-3-yl]-1,1-dioxo-5-[(4-phenoxyphenyl)methyl]-2,3-dihydro-1λ6,5-benzothiazepin-4-one] were 225%, 0.127 µM and 0.309 µM.
For the compound `COc1ccc(-c2ccc(CN3C(=O)[C@@H](N)CS(=O)(=O)c4cc(F)c(-c5noc(C(C)(C)S(C)(=O)=O)n5)cc43)cc2)cc1` [Example 50, (3R)-3-amino-8-fluoro-5-[[4-(4-methoxyphenyl)phenyl]methyl]-7-[5-(1-methyl-1-methylsulfonyl-ethyl)-1,2,4-oxadiazol-3-yl]-1,1-dioxo-2,3-dihydro-1λ6,5-benzothiazepin-4-one], in assay [1], the Emax turned out to be 293% and the EC50 was determined as 0.757 µM. Moreover, the half-maximal inhibitory concentration (IC50) in assay [2] was 0.377 µM.
In the same order, the values of `CC(C)(c1nnc(-c2ccc3c(c2)N(Cc2ccc(OC4CCCC4)cc2)C(=O)[C@@H](N)CS3(=O)=O)o1)S(C)(=O)=O` [Example 16, (3R)-3-amino-5-[[4-(cyclopentoxy)phenyl]methyl]-7-[5-(1-methyl-1-methylsulfonyl-ethyl)-1,3,4-oxadiazol-2-yl]-1,1-dioxo-2,3-dihydro-1λ6,5-benzothiazepin-4-one] are 81%, 5.36 µM and 0.82 µM.
In the same order, the values of `CC(C)(c1nnc(-c2ccc3c(c2)N(Cc2ccc(OCC(F)(F)F)cc2)C(=O)[C@@H](N)CS3(=O)=O)o1)S(C)(=O)=O` [Example 6, (3R)-3-amino-7-[5-(1-methyl-1-methylsulfonyl-ethyl)-1,3,4-oxadiazol-2-yl]-1,1-dioxo-5-[[4-(2,2,2-trifluoroethoxy)phenyl]methyl]-2,3-dihydro-1λ6,5-benzothiazepin-4-one] are 62%, 5.56 µM and 2.05 µM.
In the same order, the values of `CC(C)(c1nnc(-c2cc3c(cc2F)S(=O)(=O)C[C@H](N)C(=O)N3Cc2ccc(OC(F)(F)C(F)F)cc2)o1)S(C)(=O)=O` [Example 26, (3R)-3-amino-8-fluoro-7-[5-(1-methyl-1-methylsulfonyl-ethyl)-1,3,4-oxadiazol-2-yl]-1,1-dioxo-5-[[4-(1,1,2,2-tetrafluoroethoxy)phenyl]methyl]-2,3-dihydro-1λ6,5-benzothiazepin-4-one] are 122%, 0.573 µM and 0.37 µM.
For the compound `COc1ccc(-c2ccc(CN3C(=O)[C@@H](N)CS(=O)(=O)c4ccc(-c5nnc(C(C)(C)S(C)(=O)=O)o5)cc43)cc2)cc1` [Example 21, (3R)-3-amino-5-[[4-(4-methoxyphenyl)phenyl]methyl]-7-[5-(1-methyl-1-methylsulfonyl-ethyl)-1,3,4-oxadiazol-2-yl]-1,1-dioxo-2,3-dihydro-1λ6,5-benzothiazepin-4-one], in assay [1], the Emax came to 115% and the EC50 stood at 1.13 µM. In assay [2], this compound showed a 50% inhibitory concentration (IC50) of 1.08 µM.
Taken in the same sequence, the figures for `CC(C)(c1nnc(-c2cc3c(cc2F)S(=O)(=O)C[C@H](N)C(=O)N3Cc2ccc(-c3ccc(C(F)(F)F)cc3)cc2)o1)S(C)(=O)=O` [Example 35, (3R)-3-amino-8-fluoro-7-[5-(1-methyl-1-methylsulfonyl-ethyl)-1,3,4-oxadiazol-2-yl]-1,1-dioxo-5-[[4-[4-(trifluoromethyl)phenyl]phenyl]methyl]-2,3-dihydro-1λ6,5-benzothiazepin-4-one] were 164%, less than 0.015 µM and 0.649 µM.
With `CC(C)(c1nnc(-c2ccc3c(c2)N(Cc2ccc(-c4noc(C(F)(F)F)n4)cc2)C(=O)[C@@H](N)CS3(=O)=O)o1)S(C)(=O)=O` [Example 17, (3R)-3-amino-7-[5-(1-methyl-1-methylsulfonyl-ethyl)-1,3,4-oxadiazol-2-yl]-1,1-dioxo-5-[[4-[5-(trifluoromethyl)-1,2,4-oxadiazol-3-yl]phenyl]methyl]-2,3-dihydro-1λ6,5-benzothiazepin-4-one], in assay [1], the Emax is 112% and the EC50 is 1.46 µM. Moreover, in assay [2], half-maximal inhibition (IC50) required 3.11 µM.
Taken in the same sequence, the figures for `CC(C)(c1nnc(-c2ccc3c(c2)N(Cc2ccc(Oc4ccc(F)c(Cl)c4)cc2)C(=O)[C@@H](N)CS3(=O)=O)o1)S(C)(=O)=O` [Example 37, (3R)-3-amino-5-[[4-(3-chloro-4-fluoro-phenoxy)phenyl]methyl]-7-[5-(1-methyl-1-methylsulfonyl-ethyl)-1,3,4-oxadiazol-2-yl]-1,1-dioxo-2,3-dihydro-1λ6,5-benzothiazepin-4-one] were 115%, 1.29 µM and 0.414 µM.
Taken in the same sequence, the figures for `CC(C)(c1nc(-c2cc3c(cc2F)S(=O)(=O)C[C@H](N)C(=O)N3Cc2ccc(-c3noc(C4CC4)n3)cc2)no1)S(C)(=O)=O` [Example 45, (3R)-3-amino-5-[[4-(5-cyclopropyl-1,2,4-oxadiazol-3-yl)phenyl]methyl]-8-fluoro-7-[5-(1-methyl-1-methylsulfonyl-ethyl)-1,2,4-oxadiazol-3-yl]-1,1-dioxo-2,3-dihydro-1λ6,5-benzothiazepin-4-one] were 260%, 0.235 µM and 0.098 µM.
Taken in the same sequence, the figures for `CS(=O)(=O)C1(c2nnc(-c3cc4c(cc3F)S(=O)(=O)C[C@H](N)C(=O)N4Cc3ccc(Cl)cc3)o2)CC1` [Example 1, (3R)-3-amino-5-[(4-chlorophenyl)methyl]-8-fluoro-7-[5-(1-methylsulfonylcyclopropyl)-1,3,4-oxadiazol-2-yl]-1,1-dioxo-2,3-dihydro-1λ6,5-benzothiazepin-4-one] were 99%, 2.29 µM and 0.989 µM.
Regarding `COc1cccc(-c2ccc(CN3C(=O)[C@@H](N)CS(=O)(=O)c4ccc(-c5nnc(C(C)(C)S(C)(=O)=O)o5)cc43)cc2)c1` [Example 22, (3R)-3-amino-5-[[4-(3-methoxyphenyl)phenyl]methyl]-7-[5-(1-methyl-1-methylsulfonyl-ethyl)-1,3,4-oxadiazol-2-yl]-1,1-dioxo-2,3-dihydro-1λ6,5-benzothiazepin-4-one], in assay [1], the Emax amounted to 47% and the EC50 was greater than 10 µM. This compound also registered an IC50 in assay [2] of 1.64 µM.
Taken in the same sequence, the figures for `CC(C)(c1nc(-c2cc3c(cc2F)S(=O)(=O)C[C@H](N)C(=O)N3Cc2ccc(Oc3ccccc3)nc2)no1)S(C)(=O)=O` [Example 48, (3R)-3-amino-8-fluoro-7-[5-(1-methyl-1l-methylsulfonyl-ethyl)-1,2,4-oxadiazol-3-yl]-1,1-dioxo-5-[(6-phenoxy-3-pyridyl)methyl]-2,3-dihydro-1 λ6,5-benzothiazepin-4-one] were 252%, 0.296 µM and 0.63 µM.
